Experimental findings from ChEMBL document CHEMBL5512645, “A novel antimicrobial peptide with broad-spectrum and exceptional stability derived from the natural peptide Brevicidine” (Eur J Med Chem, 2024) are described below.

The subject of series [1] is Pseudomonas aeruginosa. Briefly: Antibacterial activity against Pseudomonas aeruginosa ATCC 27853 assessed as fold increase in MIC pretreated with MgCl2 followed by compound addition and measured after 2 hrs by broth microdilution method. The class given is functional. In general terms: Broth dilution looks for growth in wells or tubes with falling amounts of substance.

Series [2] concerns Staphylococcus aureus. The series is described as follows: In vivo antibacterial activity against Staphylococcus aureus ATCC 25923 infected in BALB/c mouse model assessed as amelioration of pathological changes in liver at 5 to 10 mg/kg, ip measured after 7 hrs by H and E staining based analysis. Type of series: functional, organism-based. The note with it: dose 5-10 mg/kg.
In series [3] the test system is Staphylococcus aureus. The series is described as follows: Antibacterial activity against Staphylococcus aureus ATCC 25923 assessed as fold increase in MIC pretreated with KCl followed by compound addition and measured after 2 hrs by broth microdilution method. Type of series: functional.
The nature of series [4]: Retention time of the compound in mouse serum by RP-HPLC analysis. The class given is ADME, cell-free.
The test system of series [5] is Staphylococcus aureus. The series is described as follows: Antibacterial activity against Staphylococcus aureus ATCC 25923 at sub-MIC measured after 20 days. Type of series: functional, organism-based. As to conditions: time 20.0 day.
Series [6] concerns Pseudomonas aeruginosa. Briefly: Antimicrobial activity against Pseudomonas aeruginosa ATCC 27853 assessed as reduction in microbial growth at 2 times MIC measured for 18 hrs in presence of 256 microg/ml LPS. Type of series: functional, organism-based.
The test system of series [7] is Pseudomonas aeruginosa. Briefly: Bactericidal activity against Pseudomonas aeruginosa ATCC 27853 assessed as assessed as eradication of bacterial cells at 1/2 to 1 times MIC measured after 0.5 hr by time killing analysis relative to control. The class given is functional.
Series [8] in a line: Toxicity in male BALB/c mouse assessed as survival rate at 29.2 mg/kg, ip measured after 7 days relative to control. The class given is organism-based. As to conditions: in vivo, time 7 day.
In series [9] the test system is Staphylococcus aureus. The series is described as follows: In vivo antibacterial activity against Staphylococcus aureus ATCC 25923 infected in BALB/c mouse model assessed as reduction in bacterial count in lung at 10 mg/kg, ip preadministered with compound for 1 hr followed by bacterial infection and measured after 6 hrs […]. Type of series: functional, organism-based. The note with it: time 7.0 hrs.

The test system of series [10] is Cell membrane. The series is described as follows: Induction of outer membrane permeabilization in Pseudomonas aeruginosa ATCC 27853 assessed increase in fluorescence intensity at 1/2 to 4 times MIC measured upto 12 mins by fluorescence based NPN uptake assay. Type of series: cell membranes.
Series [11] relates to Staphylococcus aureus. Briefly: Induction of morphological changes in Staphylococcus aureus ATCC 25923 assessed as adhesion at 2 times MIC measured after 0.5 hrs by SEM based analysis. The class given is functional, organism-based.
In series [12] the test system is Pseudomonas aeruginosa. The series is described as follows: Antibacterial activity against Pseudomonas aeruginosa ATCC 27853 assessed as fold increase in MIC pretreated with KCl followed by compound addition and measured after 2 hrs by broth microdilution method. Type of series: functional.
In series [13] the test system is Pseudomonas aeruginosa. The series is described as follows: Antibacterial activity against Pseudomonas aeruginosa ATCC 27853 at sub-MIC measured after 20 days. The class given is functional, organism-based. The note with it: time 20.0 day.
Series [14] has as its system Staphylococcus aureus. The series is described as follows: Antibacterial activity against Staphylococcus aureus ATCC 25923 pretreated with FeCl3 followed by compound addition and measured after 2 hrs by broth microdilution method (reference value: 8 microM). Type of series: functional.
The subject of series [15] is Cell membrane. Briefly: Induction of cytoplasmic membrane depolarization in Pseudomonas aeruginosa ATCC 27853 assessed as increase in fluorescence intensity measured upto 12 min by DiSC3-5 dye based fluorescence method. The class given is cell membranes.
Series [16] deals with Pseudomonas aeruginosa. Briefly: Antibacterial activity against Pseudomonas aeruginosa ATCC 27853 assessed as fold increase in MIC pretreated with ZnCl2 followed by compound addition and measured after 2 hrs by broth microdilution method. Type of series: functional.
The test system of series [17] is Staphylococcus aureus. Briefly: Antibacterial activity against Staphylococcus aureus ATCC 25923 assessed as fold increase in MIC pretreated with 2.5 to 20% mouse serum followed by compound addition and measured after 1 to 6 hrs by broth microdilution method. The class given is functional. As to conditions: time 1-6 hrs.
The nature of series [18]: Cytotoxicity against human HK-2 cells measured after 24 hrs MTT assay. The class given is toxicity, cell-based. For orientation: Formazan colour is commonly taken as a measure of viable cells.
Series [19] deals with Pseudomonas aeruginosa. Briefly: Induction of morphological changes in Pseudomonas aeruginosa ATCC 27853 assessed as adhesion at 2 times MIC measured after 0.5 hrs by SEM based analysis. Type of series: functional, organism-based.
Series [20] has as its system Staphylococcus aureus. Briefly: Antibacterial activity against Staphylococcus aureus ATCC 25923 pretreated with 20% mouse serum followed by compound addition and measured after 6 hrs by broth microdilution method (reference value: 8 microM). The class given is functional.
The test system of series [21] is Staphylococcus aureus. Briefly: Bactericidal activity against Staphylococcus aureus ATCC 25923 assessed as assessed as eradication of bacterial cells at 1/2 times MIC measured after 6 hrs by time killing analysis. Type of series: functional, organism-based.
Series [22] has as its system Staphylococcus aureus. The series is described as follows: In vivo antibacterial activity against Staphylococcus aureus ATCC 25923 infected in BALB/c mouse model assessed as amelioration of pathological changes in kidney at 5 to 10 mg/kg, ip measured after 7 hrs by H and E staining based analysis. The note with it: dose 5-10 mg/kg. Type of series: functional, organism-based.

Series [23] concerns Cell membrane. Briefly: Induction of cytoplasmic membrane depolarization in Staphylococcus aureus ATCC 25923 assessed as increase in fluorescence intensity measured upto 12 min by DiSC3-5 dye based fluorescence method. The class given is cell membranes.
Series [24] in a line: Toxicity in male BALB/c mouse assessed as hemorrhage in liver at 46.88 mg/kg, ip administered as single dose by H and E staining based analysis. The class given is organism-based. As to conditions: in vivo.
Series [25] relates to Staphylococcus aureus. Briefly: Antibacterial activity against Staphylococcus aureus ATCC 25923 pretreated with ZnCl2 followed by compound addition and measured after 2 hrs by broth microdilution method (reference value: 8 microM). Type of series: functional.
Series [26] can be described thus: Toxicity in male BALB/c mouse assessed as inflammatory cell infiltration in liver at 46.88 mg/kg, ip administered as single dose by H and E staining based analysis. As to conditions: in vivo. The class given is organism-based.
In series [27] the test system is Pseudomonas aeruginosa. The series is described as follows: Induction of morphological changes in Pseudomonas aeruginosa ATCC 27853 assessed as pore formation on bacterial surface at 2 times MIC measured after 0.5 hrs by SEM based analysis. Type of series: functional, organism-based.
The subject of series [28] is Staphylococcus aureus. Briefly: Antibacterial activity against Staphylococcus aureus ATCC 25923 pretreated with Mgcl2 followed by compound addition and measured after 2 hrs by broth microdilution method (reference value: 64 microM). Type of series: functional.
The test system of series [29] is Staphylococcus aureus. Briefly: Antibacterial activity against Staphylococcus aureus ATCC 25923 pretreated with 10% mouse serum followed by compound addition and measured after 1 hr by broth microdilution method (reference value: 64 microM). Type of series: functional.
Series [30] deals with Staphylococcus aureus. The series is described as follows: Antibacterial activity against Staphylococcus aureus ATCC 25923 assessed as fold increase in MIC pretreated with 2.5 to 20% mouse serum followed by compound addition and measured after 6 hr by broth microdilution method. The class given is functional.
In series [31] the test system is Staphylococcus aureus. Briefly: Antibacterial activity against Staphylococcus aureus ATCC 25923 pretreated with Na-cl followed by compound addition and measured after 2 hrs by broth microdilution method (reference value: 64 microM). Type of series: functional.
Series [32] has as its system Cell membrane. The series is described as follows: Induction of cytoplasmic membrane depolarization in Staphylococcus aureus ATCC 25923 assessed as increase in fluorescence intensity at 4 times MIC measured upto 12 min by DiSC3-5 dye based fluorescence method. Type of series: cell membranes.
Series [33] has as its system Staphylococcus aureus. Briefly: Antibacterial activity against Staphylococcus aureus ATCC 25923 pretreated with 5% mouse serum followed by compound addition and measured after 6 hrs by broth microdilution method (reference value: 16 microM). The class given is functional, organism-based.
For series [34], the system named is Staphylococcus aureus. The series is described as follows: Antibacterial activity against Staphylococcus aureus ATCC 25923 pretreated with 10% mouse serum followed by compound addition and measured after 6 hrs by broth microdilution method (reference value: 16 microM). Type of series: functional, organism-based.
In series [35] the test system is Staphylococcus aureus. The series is described as follows: Antibacterial activity against Staphylococcus aureus ATCC 25923 pretreated with 2.5% mouse serum followed by compound addition and measured after 1 hrs by broth microdilution method (reference value: 16 microM). The class given is functional, organism-based.
For series [36], the system named is Pseudomonas aeruginosa. The series is described as follows: Antibiofilm activity against Pseudomonas aeruginosa ATCC 27853 assessed as biofilm eradication at 1/2 to 4 times MIC measured after 24 hrs by crystal violet staining based analysis. Type of series: functional, organism-based.

Values after ≈ are worked out from the molar mass of the structure shown. Active and inactive are the calls of the source. The rule behind the calls is not given here. Bridge positions count the residues as written; N and C are the ends. Square brackets hold non-standard residues; d marks the D form. Peptide text beside a SMILES is read from it. * marks the point of attachment. ξ: configuration not given here. Hexanoyl(4ξ-Me) = CCC(C)CCC(=O)*; dOrn = NCCC[C@@H](N)C(=O)O; Orn = NCCC[C@H](N)C(=O)O Some results are limits rather than exact numbers.

Usually MIC stands for the least concentration at which growth counts as inhibited. By IC50 is commonly meant the concentration that gives 50% inhibition. A high value points to weaker potency in that assay. Regarding `CCCCCCCCCC(=O)N[C@H](CCCN)C(=O)N[C@H](Cc1ccc(O)cc1)C(=O)N[C@H](Cc1c[nH]c2ccccc12)C(=O)N[C@H](CCCN)C(=O)N[C@@H](CCCN)C(=O)NCC(=O)N[C@H](CCCN)C(=O)N[C@@H](Cc1c[nH]c2ccccc12)C(=O)N[C@H](C(=O)N[C@H](C(=O)NCC(=O)N[C@@H](CO)C(=O)O)[C@@H](C)CC)[C@@H](C)O`, the “fold change (FC)” value in series [1] turned out to be 8; in series [3], 2; in series [12], 8; in [16], 8; in series [17] it was 4. The result in series [2], in [5], in [9], in [11], in [13] and in [19] was Active. For the same molecule, the outcome in [21] and in series [22] was Active. In series [4], the Retention_time came to 15.312 min. In addition, the outcome in [6] and in series [10] was inactive. In addition, the Activity is 100% in series [7]; “Dose-Dependent Effect” in series [15]; “Dose-Dependent Effect” in series [23]; “Toxic” in series [24]; “Toxic” in series [26]. The survival at 168 h in series [8] came to 100%. The MIC in [14] is 8 µM (≈ 12.6 µg/mL); in series [20], > 128 µM; in series [25], 32 µM (≈ 50.6 µg/mL). The molecule also displayed an IC50 at 24 h in [18] of 21.1 µM.
For `CCC(C)CCC(=O)N[C@H](CC(N)=O)C(=O)N[C@H](Cc1ccc(O)cc1)C(=O)N[C@H](Cc1c[nH]c2ccccc12)C(=O)N[C@H](CCCN)C(=O)N[C@@H](CCCN)C(=O)NCC(=O)N[C@H](CCCN)C(=O)N[C@@H](Cc1c[nH]c2ccccc12)C(=O)N[C@@H]1C(=O)N[C@@H]([C@@H](C)CC)C(=O)NCC(=O)N[C@@H](CO)C(=O)O[C@@H]1C` (stereo partly drawn) ({Hexanoyl(4ξ-Me)}-[dN][dY][dW][dOrn][Orn]G[dOrn]WTIGS; ester 9-C), the “fold change (FC)” value in series [1] was found to be 4; in series [12] it was 4; in series [16] it was 2; in series [30] it was 2. In series [4], this molecule came in with a Retention_time of 14.82 min. In addition, the outcome in series [5], in series [27] and in [13] was Active. Also, the MIC in series [28] was found to be 64 µM (≈ 97.3 µg/mL); in series [29] it was 64 µM (≈ 97.3 µg/mL); in series [31], 128 µM (≈ 195 µg/mL). Moreover, the IC50 at 24 h in series [18] turned out to be 36.5 µM.
POLYMYXIN B: the result in series [2], in [27], in series [9], in series [22] and in series [36] was Active. In addition, the result in series [32] and in series [6] was inactive. Also, the minimal inhibitory concentration (MIC) in series [33], in series [34] and in series [35] was 16 µM throughout.
